Assay results as given in patent publication US9217014B2, “Antifungal agents and uses thereof” (Cidara Therapeutics, Inc., priority 2011, dated 2015).

Experiments:
Format in all cases: cell-based
Candida spp. = assay: MIC values versus Candida spp. at 24 and 48 hours; details: presence and absence of 50% human serum
Description: (§1) MIC values (μg/mL) of anidulafungin, caspofungin, amphotericin B, compound 1, and compound 16 against various Candida species in the presence and absence of 50% human serum were obtained as follows.
(§2) Test organisms were obtained from the American Type Culture Collection (Manassas, Va.). The isolates were maintained at −80° C., then thawed and sub-cultured prior to testing.
(§3) The MIC assay method followed the procedure described by the Clinical and Laboratory Standards Institute and employed automated liquid handlers to conduct serial dilutions and liquid transfers. The wells in columns 1-12 in standard 96-well microdilution plates were filled with 150 μL of DMSO. These would become the ‘mother plates’ from which ‘daughter’ or test plates would be prepared. The drugs (150 μL at 80× the desired top concentration in the test plates) were dispensed into the appropriate well in column 1 of the mother plates and mixed. Serial 1:1 dilutions were made through Column 11 in the “mother plate”. The wells of column 12 contained no drug and were the organism growth control wells. […]
(§4) Plates were covered with a lid, placed in plastic bags, and incubated at 35° C. The Candida isolates were read after 24 h incubation and again at 48 h. […]
(§5) For Candida species, the Minimal Inhibitory Concentration (MIC) was read per CLSI guidelines.

Candida glabrata = assay: MIC versus a strain of Candida glabrata in 50% human serum
Description: as §1, §2, §3, §4, §5

Aspergillus spp. = assay: MEC and MIC values versus Aspergillus spp.; details: 48 h; presence and absence of 50% human serum
Description: MEC and MIC values (μg/mL) of anidulafungin, caspofungin, amphotericin B, compound 1, and compound 16 against various Aspergillus species in the presence and absence of 50% human serum were obtained as follows.
Test organisms were obtained from the American Type Culture Collection (Manassas, Va.). The isolates were maintained at −80° C., then thawed and sub-cultured prior to testing. […]
Standardized inoculum of Aspergillus was prepared per CLSI methods. […] After a short time to allow the heavy particles to settle out, a small quantity of the supernatant was dispensed into RPMI and the suspension adjusted to equal 0.5 McFarland turbidity. […]
Plates were covered with a lid, placed in plastic bags, and incubated at 35° C. The Aspergillus plates were incubated for 48 h before reading. […]
Both an MIC and Minimal Effective Concentration (MEC) value was recorded. […]

In the case of `CCCCCOc1ccc(-c2ccc(-c3ccc(C(=O)N[C@H]4C[C@@H](O)C(OCC[N+](C)(C)C)NC(=O)C5[C@@H](O)[C@@H](C)CN5C(=O)C([C@@H](C)O)NC(=O)C([C@H](O)[C@@H](O)c5ccc(O)cc5)NC(=O)C5C[C@@H](O)CN5C(=O)C([C@@H](C)O)NC4=O)cc3)cc2)cc1` (stereo partly drawn) [compound 1], the “activity against Candida strains relative to anidulafungin (MIC)” value (Candida spp.) is reported as “retain their activity”, the “activity against a strain of Candida glabrata in comparison to anidulafungin” value (Candida glabrata) is reported as “superior activity” and the “activity against Aspergillus strains relative to anidulafungin (MEC and MIC)” value (Aspergillus spp.) is reported as “retain their activity”.
`CCCCCOc1ccc(-c2ccc(-c3ccc(C(=O)N[C@H]4C[C@@H](O)C(NCC[N+](C)(C)C)NC(=O)C5[C@@H](O)[C@@H](C)CN5C(=O)C([C@@H](C)O)NC(=O)C([C@H](O)[C@@H](O)c5ccc(O)cc5)NC(=O)C5C[C@@H](O)CC5C(=O)C([C@@H](C)O)NC4=O)cc3)cc2)cc1` (stereo partly drawn) [compound 16] was tested, and the “activity against Candida strains relative to anidulafungin (MIC)” value (Candida spp.) was “retain their activity”, the “activity against a strain of Candida glabrata in comparison to anidulafungin” value (Candida glabrata) was “superior activity” and the “activity against Aspergillus strains relative to anidulafungin (MEC and MIC)” value (Aspergillus spp.) was “retain their activity”.
